Several values for one entry are separate records, joined by “and”; a condition that tells them apart may be missing. Equal values may be shown once.
Legend:
Assay type in all cases: cell-based
LPAR2 = target: T1, LPAR2 (Homo sapiens, UniProt Q9HBW0); assay: PRESTO-Tango GPCR screen; details: 100 µM
T1 construct: purchased PRESTO-Tango GPCR kit (Roth lab / Addgene)
Procedure, shortened: (§1)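 Receptor activation is detected through β-arrestin-TEV cleavage releasing tTA, which drives luciferase in HTLA cells. Transfected cells receive compound (100 μM final) in DMEM with 10 mM HEPES for 20 h; Bright-Glo luminescence is divided by the PBS-control signal.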

MRGPRX4 = target: T2, MRGPRX4 (Homo sapiens, UniProt Q96LA9); assay: PRESTO-Tango GPCR screen; details: 100 µM
T2 construct: purchased PRESTO-Tango GPCR kit (Roth lab / Addgene)
Procedure, shortened: as §1

UTS2R = target: T3, UTS2R (Homo sapiens, UniProt Q9UKP6); assay: PRESTO-Tango GPCR screen; details: 100 µM
T3 construct: purchased PRESTO-Tango GPCR kit (Roth lab / Addgene)
Procedure, shortened: as §1

PTGER2 = target: T4, PTGER2 (Homo sapiens, UniProt P43116); assay: PRESTO-Tango GPCR screen; details: 100 µM
T4 construct: purchased PRESTO-Tango GPCR kit (Roth lab / Addgene)
Procedure, shortened: as §1

PTAFR = target: T5, PTAFR (Homo sapiens, UniProt P25105); assay: PRESTO-Tango GPCR screen; details: 100 µM
T5 construct: purchased PRESTO-Tango GPCR kit (Roth lab / Addgene)
Procedure, shortened: as §1

GPR162 = target: T6, GPR162 (Homo sapiens, UniProt Q16538); assay: PRESTO-Tango GPCR screen; details: 100 µM
T6 construct: purchased PRESTO-Tango GPCR kit (Roth lab / Addgene)
Procedure, shortened: as §1

RXFP4 = target: T7, RXFP4 (Homo sapiens, UniProt Q8TDU9); assay: PRESTO-Tango GPCR screen; details: 100 µM
T7 construct: purchased PRESTO-Tango GPCR kit (Roth lab / Addgene)
Procedure, shortened: as §1

PTGER1 = target: T8, PTGER1 (Homo sapiens, UniProt P34995); assay: PRESTO-Tango GPCR screen; details: 100 µM
T8 construct: purchased PRESTO-Tango GPCR kit (Roth lab / Addgene)
Procedure, shortened: as §1

GPR83 = target: T9, GPR83 (Homo sapiens, UniProt Q9NYM4); assay: PRESTO-Tango GPCR screen; details: 100 µM
T9 construct: purchased PRESTO-Tango GPCR kit (Roth lab / Addgene)
Procedure, shortened: as §1

PK2 = target: T10, PK2 (Homo sapiens, UniProt Q8NFJ6); assay: PRESTO-Tango GPCR screen; details: 100 µM
T10 construct: purchased PRESTO-Tango GPCR kit (Roth lab / Addgene)
Procedure, shortened: as §1

GPR35 = target: T11, GPR35 (Homo sapiens, UniProt Q9HC97); assay: PRESTO-Tango GPCR screen; details: 100 µM
T11 construct: purchased PRESTO-Tango GPCR kit (Roth lab / Addgene)
Procedure, shortened: as §1

GPR45 = target: T12, GPR45 (Homo sapiens, UniProt Q9Y5Y3); assay: PRESTO-Tango GPCR screen; details: 100 µM
T12 construct: purchased PRESTO-Tango GPCR kit (Roth lab / Addgene)
Procedure, shortened: as §1

HTR1E = target: T13, HTR1E (Homo sapiens, UniProt P28566); assay: PRESTO-Tango GPCR screen; details: 100 µM
T13 construct: purchased PRESTO-Tango GPCR kit (Roth lab / Addgene)
Procedure, shortened: as §1

ADRA2C = target: T14, ADRA2C (Homo sapiens, UniProt P18825); assay: PRESTO-Tango GPCR screen; details: 100 µM
T14 construct: purchased PRESTO-Tango GPCR kit (Roth lab / Addgene)
Procedure, shortened: as §1

TACR2 = target: T15, TACR2 (Homo sapiens, UniProt P21452); assay: PRESTO-Tango GPCR screen; details: 100 µM
T15 construct: purchased PRESTO-Tango GPCR kit (Roth lab / Addgene)
Procedure, shortened: as §1

CCKBR = target: T16, CCKBR (Homo sapiens, UniProt P32239); assay: PRESTO-Tango GPCR screen; details: 100 µM
T16 construct: purchased PRESTO-Tango GPCR kit (Roth lab / Addgene)
Procedure, shortened: as §1

GPR88 = target: T17, GPR88 (Homo sapiens, UniProt Q9GZN0); assay: PRESTO-Tango GPCR screen; details: 100 µM
T17 construct: purchased PRESTO-Tango GPCR kit (Roth lab / Addgene)
Procedure, shortened: as §1

NPY1R = target: T18, NPY1R (Homo sapiens, UniProt P25929); assay: PRESTO-Tango GPCR screen; details: 100 µM
T18 construct: purchased PRESTO-Tango GPCR kit (Roth lab / Addgene)
Procedure, shortened: as §1

GCGR = target: T19, GCGR (Homo sapiens, UniProt P47871); assay: PRESTO-Tango GPCR screen; details: 100 µM
T19 construct: purchased PRESTO-Tango GPCR kit (Roth lab / Addgene)
Procedure, shortened: as §1

GRM1 = target: T20, GRM1 (Homo sapiens, UniProt Q13255); assay: PRESTO-Tango GPCR screen; details: 100 µM
T20 construct: purchased PRESTO-Tango GPCR kit (Roth lab / Addgene)
Procedure, shortened: as §1

GPR15 = target: T21, GPR15 (Homo sapiens, UniProt P49685); assay: PRESTO-Tango GPCR screen; details: 100 µM
T21 construct: purchased PRESTO-Tango GPCR kit (Roth lab / Addgene)
Procedure, shortened: as §1

GPR119 = target: T22, GPR119 (Homo sapiens, UniProt Q8TDV5); assay: PRESTO-Tango GPCR screen; details: 100 µM
T22 construct: purchased PRESTO-Tango GPCR kit (Roth lab / Addgene)
Procedure, shortened: as §1

GPR171 = target: T23, GPR171 (Homo sapiens, UniProt O14626); assay: PRESTO-Tango GPCR screen; details: 100 µM
T23 construct: purchased PRESTO-Tango GPCR kit (Roth lab / Addgene)
Procedure, shortened: as §1

HTR2B = target: T24, HTR2B (Homo sapiens, UniProt P41595); assay: PRESTO-Tango GPCR screen; details: 100 µM
T24 construct: purchased PRESTO-Tango GPCR kit (Roth lab / Addgene)
Procedure, shortened: as §1

[1] = target: T25, histamine receptor H4 (HRH4) (Homo sapiens, UniProt Q9H3N8); assay: PRESTO-Tango GPCR screen and dose-response; details: for HRH4 dose-response raw reporter signal (Fig. 5b source data): replicate wells
T25 construct: expressed in transfected cells; host or cells: HTLA cells (HEK293 line stably expressing β-arrestin-TEV and tTA-Luciferase)
Procedure, shortened: (§2)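 Each receptor was expressed from a Tango plasmid in HTLA cells, which stably carry β-arrestin-TEV and a tTA-driven luciferase reporter. Single-point screening used 100 μM final compound for 20 h, and the signal was normalised to PBS control. Concentration-response testing spanned 10^−4 to 10^−15 M.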

HRH1 = target: T26, HRH1 (Homo sapiens, UniProt P35367); assay: PRESTO-Tango GPCR screen and dose-response; details: for HRH1 dose-response raw reporter signal (Fig. 5b source data): replicate wells
T26 construct: expressed in transfected cells; host or cells: HTLA cells (HEK293 line stably expressing β-arrestin-TEV and tTA-Luciferase)
Procedure, shortened: as §2

[2] = tested on: 314-member panel of human G protein-coupled receptors (GPCRs); assay: PRESTO-Tango screen of 314-member human GPCR panel; details: 100 µM, HTLA cells
Description: The PRESTO-Tango analyses were performed as previously published. Briefly, HTLA cells, a HEK293 cell line that stably expresses β-arrestin-TEV and tTA-Luciferase (a kind gift from Gilad Barnea, Brown University), were plated in 96-well tissue culture plates (Eppendorf) in DMEM containing 10% FBS and 1% Penicillin/Streptomycin. One day after plating (after reaching approximately 90% confluence), 200 ng per well GPCR-Tango plasmids[37] in 20 μL DMEM were individually mixed with 400 ng polyethylenimine (Polysciences) in an equal volume of DMEM and incubated for 20 min at room temperature before adding the transfection mixture to the HTLA cells. 16-24 h after transfection, medium was replaced with 180 μL fresh DMEM containing 1% Penicillin/Streptomycin and 10 mM HEPES and 20 μL of 3 or 3-Homo to reach a final concentration of 100 μM. Supernatants were aspirated 20 h after stimulation and 50 μl per well of Bright-Glo solution (Promega) diluted 20-fold with PBS containing 20 mM HEPES was added into each well. After 15 min incubation at room temperature, luminescence was quantified using a Spectramax i3x microplate reader (Molecular Devices). Activation fold for each sample was calculated by dividing relative luminescence units (RLU) for each condition by RLUs from PBS control. […]

T26 sequence (P35367 whole entry): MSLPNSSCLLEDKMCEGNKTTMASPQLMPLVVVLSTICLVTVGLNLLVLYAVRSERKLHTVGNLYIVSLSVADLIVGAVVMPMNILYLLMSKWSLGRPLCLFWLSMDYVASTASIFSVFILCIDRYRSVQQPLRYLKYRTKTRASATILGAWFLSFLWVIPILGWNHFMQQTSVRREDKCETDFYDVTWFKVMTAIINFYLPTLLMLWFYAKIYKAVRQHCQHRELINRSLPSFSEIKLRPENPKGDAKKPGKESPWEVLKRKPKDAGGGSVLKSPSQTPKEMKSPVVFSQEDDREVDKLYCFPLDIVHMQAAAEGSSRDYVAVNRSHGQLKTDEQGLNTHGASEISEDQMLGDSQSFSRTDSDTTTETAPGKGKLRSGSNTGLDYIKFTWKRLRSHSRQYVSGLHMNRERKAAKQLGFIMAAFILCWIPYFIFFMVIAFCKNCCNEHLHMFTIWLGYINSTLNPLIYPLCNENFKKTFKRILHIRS
T25 sequence (Q9H3N8 whole entry): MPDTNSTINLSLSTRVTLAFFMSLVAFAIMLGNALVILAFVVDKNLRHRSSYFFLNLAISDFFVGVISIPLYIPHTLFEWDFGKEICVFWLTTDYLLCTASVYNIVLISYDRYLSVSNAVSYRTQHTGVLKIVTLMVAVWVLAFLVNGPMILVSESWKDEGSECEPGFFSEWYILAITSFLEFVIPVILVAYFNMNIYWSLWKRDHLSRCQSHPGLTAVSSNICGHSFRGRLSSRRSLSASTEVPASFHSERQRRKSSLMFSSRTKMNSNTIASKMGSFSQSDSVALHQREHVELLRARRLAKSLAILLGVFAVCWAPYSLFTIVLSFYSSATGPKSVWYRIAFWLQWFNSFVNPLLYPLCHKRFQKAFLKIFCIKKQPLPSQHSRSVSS
T6 sequence (Q16538 whole entry): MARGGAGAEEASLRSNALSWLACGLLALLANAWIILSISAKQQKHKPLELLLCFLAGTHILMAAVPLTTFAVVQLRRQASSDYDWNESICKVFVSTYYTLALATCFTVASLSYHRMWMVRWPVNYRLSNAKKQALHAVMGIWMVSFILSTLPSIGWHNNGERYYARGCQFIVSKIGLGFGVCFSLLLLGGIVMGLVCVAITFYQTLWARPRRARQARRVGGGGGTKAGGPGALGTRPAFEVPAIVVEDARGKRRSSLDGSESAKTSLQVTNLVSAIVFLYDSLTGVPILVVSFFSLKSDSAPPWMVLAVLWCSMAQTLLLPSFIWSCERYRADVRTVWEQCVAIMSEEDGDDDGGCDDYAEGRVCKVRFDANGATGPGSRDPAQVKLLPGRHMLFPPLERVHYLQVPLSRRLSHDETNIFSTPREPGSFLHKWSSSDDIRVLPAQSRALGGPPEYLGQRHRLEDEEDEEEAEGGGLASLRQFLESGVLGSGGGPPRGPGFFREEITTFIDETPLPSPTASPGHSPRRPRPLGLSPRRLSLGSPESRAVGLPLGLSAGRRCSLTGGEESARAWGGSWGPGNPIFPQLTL
T1 sequence (Q9HBW0 whole entry): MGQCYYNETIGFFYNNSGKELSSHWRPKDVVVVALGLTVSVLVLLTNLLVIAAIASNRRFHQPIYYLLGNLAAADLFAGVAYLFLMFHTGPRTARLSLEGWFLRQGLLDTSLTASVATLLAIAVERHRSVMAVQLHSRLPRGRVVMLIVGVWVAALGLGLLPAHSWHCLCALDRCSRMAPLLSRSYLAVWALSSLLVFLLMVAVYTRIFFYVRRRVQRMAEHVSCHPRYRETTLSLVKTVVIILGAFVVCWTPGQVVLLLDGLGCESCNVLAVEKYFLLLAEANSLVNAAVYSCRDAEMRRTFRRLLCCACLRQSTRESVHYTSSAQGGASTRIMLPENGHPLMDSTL
T24 sequence (P41595 whole entry): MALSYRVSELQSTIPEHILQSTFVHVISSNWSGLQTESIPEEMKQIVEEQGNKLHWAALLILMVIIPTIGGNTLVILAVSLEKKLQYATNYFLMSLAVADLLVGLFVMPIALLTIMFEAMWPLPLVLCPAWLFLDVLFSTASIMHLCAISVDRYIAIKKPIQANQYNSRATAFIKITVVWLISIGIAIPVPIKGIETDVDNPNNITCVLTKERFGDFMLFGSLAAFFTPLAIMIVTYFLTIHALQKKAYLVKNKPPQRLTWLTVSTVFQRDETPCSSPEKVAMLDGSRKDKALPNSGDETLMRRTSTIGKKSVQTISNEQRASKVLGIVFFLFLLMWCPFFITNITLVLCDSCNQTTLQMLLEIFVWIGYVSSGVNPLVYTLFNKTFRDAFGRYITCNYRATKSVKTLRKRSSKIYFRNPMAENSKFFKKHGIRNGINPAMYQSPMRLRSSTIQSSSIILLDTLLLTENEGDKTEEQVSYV
T5 sequence (P25105 whole entry): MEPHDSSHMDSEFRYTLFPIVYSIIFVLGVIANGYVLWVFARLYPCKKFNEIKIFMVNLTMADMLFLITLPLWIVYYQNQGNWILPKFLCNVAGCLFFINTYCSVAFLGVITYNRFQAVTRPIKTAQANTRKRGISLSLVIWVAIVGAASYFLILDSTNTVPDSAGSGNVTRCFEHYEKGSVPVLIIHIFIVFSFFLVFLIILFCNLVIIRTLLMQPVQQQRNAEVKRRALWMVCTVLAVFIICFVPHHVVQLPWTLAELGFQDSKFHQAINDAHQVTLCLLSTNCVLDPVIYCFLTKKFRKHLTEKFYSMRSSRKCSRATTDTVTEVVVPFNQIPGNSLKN
T13 sequence (P28566 whole entry): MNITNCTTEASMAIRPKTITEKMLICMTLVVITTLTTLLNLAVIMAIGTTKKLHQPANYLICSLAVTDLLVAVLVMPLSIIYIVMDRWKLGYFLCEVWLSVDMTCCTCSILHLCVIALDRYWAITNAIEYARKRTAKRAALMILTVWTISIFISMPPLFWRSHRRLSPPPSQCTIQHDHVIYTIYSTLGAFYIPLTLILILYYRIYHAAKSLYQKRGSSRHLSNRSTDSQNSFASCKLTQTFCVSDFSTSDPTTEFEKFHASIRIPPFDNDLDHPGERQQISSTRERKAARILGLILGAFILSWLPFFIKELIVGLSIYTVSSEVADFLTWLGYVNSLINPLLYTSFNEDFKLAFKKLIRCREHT
T10 sequence (Q8NFJ6 whole entry): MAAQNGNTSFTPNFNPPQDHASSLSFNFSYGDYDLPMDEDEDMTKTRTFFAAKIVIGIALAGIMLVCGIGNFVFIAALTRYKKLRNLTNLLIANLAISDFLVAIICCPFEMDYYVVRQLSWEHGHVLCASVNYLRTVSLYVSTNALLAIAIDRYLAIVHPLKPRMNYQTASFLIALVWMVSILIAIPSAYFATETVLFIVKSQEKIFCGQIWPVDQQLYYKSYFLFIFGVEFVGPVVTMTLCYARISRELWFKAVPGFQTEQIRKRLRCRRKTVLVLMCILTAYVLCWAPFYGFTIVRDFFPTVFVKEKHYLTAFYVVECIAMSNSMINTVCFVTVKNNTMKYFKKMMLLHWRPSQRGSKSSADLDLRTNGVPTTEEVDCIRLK
T3 sequence (Q9UKP6 whole entry): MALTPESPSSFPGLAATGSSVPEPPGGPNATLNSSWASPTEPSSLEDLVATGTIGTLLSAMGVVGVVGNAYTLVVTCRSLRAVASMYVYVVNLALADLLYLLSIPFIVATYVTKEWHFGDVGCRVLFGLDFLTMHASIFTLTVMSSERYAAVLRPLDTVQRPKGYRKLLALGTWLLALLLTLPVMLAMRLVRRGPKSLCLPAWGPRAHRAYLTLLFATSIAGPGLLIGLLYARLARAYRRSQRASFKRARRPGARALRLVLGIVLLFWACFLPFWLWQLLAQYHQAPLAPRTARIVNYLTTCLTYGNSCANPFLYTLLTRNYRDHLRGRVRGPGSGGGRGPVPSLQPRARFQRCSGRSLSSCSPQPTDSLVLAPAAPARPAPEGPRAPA
T22 sequence (Q8TDV5 whole entry): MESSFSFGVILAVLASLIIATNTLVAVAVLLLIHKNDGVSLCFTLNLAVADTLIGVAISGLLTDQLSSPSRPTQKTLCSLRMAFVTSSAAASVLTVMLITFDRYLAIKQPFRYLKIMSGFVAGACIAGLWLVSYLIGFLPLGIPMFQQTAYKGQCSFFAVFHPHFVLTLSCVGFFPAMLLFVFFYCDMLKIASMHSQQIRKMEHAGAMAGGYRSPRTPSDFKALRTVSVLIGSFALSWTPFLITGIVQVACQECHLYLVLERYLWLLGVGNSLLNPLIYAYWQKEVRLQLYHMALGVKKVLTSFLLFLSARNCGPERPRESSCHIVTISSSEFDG
T12 sequence (Q9Y5Y3 whole entry): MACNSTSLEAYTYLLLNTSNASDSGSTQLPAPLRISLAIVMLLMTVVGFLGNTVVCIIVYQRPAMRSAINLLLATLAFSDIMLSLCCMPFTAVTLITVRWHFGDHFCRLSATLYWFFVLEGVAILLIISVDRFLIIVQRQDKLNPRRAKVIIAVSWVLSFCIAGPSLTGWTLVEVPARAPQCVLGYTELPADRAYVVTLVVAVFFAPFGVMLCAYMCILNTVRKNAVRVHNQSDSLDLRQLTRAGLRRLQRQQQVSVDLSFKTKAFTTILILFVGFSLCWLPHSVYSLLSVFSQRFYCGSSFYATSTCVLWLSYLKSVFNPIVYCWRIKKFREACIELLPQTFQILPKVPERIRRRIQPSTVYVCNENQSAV
T2 sequence (Q96LA9 whole entry): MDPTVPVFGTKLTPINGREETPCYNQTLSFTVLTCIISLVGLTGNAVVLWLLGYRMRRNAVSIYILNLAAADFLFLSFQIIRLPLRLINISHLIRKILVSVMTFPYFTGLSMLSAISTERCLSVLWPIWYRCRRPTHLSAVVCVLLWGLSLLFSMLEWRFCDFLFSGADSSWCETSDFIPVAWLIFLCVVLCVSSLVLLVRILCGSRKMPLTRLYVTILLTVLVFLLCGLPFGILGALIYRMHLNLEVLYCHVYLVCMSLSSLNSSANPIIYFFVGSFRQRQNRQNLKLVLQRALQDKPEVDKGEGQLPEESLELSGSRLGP

## CC(C)Cc1ncc(CCCNC(=N)N)[nH]c1=O [compound 3]
LPAR2
  GPCR activation (heatmap value): -0.4851
MRGPRX4
  GPCR activation (heatmap value): 0.07015
UTS2R
  GPCR activation (heatmap value): 0.9484
PTGER2
  GPCR activation (heatmap value): -0.3243
PTAFR
  GPCR activation (heatmap value): -0.05027
GPR162
  GPCR activation (heatmap value): 0.329
RXFP4
  GPCR activation (heatmap value): -0.6712
PTGER1
  GPCR activation (heatmap value): -0.585
GPR83
  GPCR activation (heatmap value): -0.04196
PK2
  GPCR activation (heatmap value): -0.4477
GPR35
  GPCR activation (heatmap value): -0.5823
GPR45
  GPCR activation (heatmap value): 0.4781
HTR1E
  GPCR activation (heatmap value): 0.5345
ADRA2C
  GPCR activation (heatmap value): 0.2266
TACR2
  GPCR activation (heatmap value): 0.2945
CCKBR
  GPCR activation (heatmap value): 0.2979
GPR88
  GPCR activation (heatmap value): -0.2878
NPY1R
  GPCR activation (heatmap value): -0.2056
GCGR
  GPCR activation (heatmap value): 0.3476
GRM1
  GPCR activation (heatmap value): 0.374
GPR15
  GPCR activation (heatmap value): -0.8181
GPR119
  GPCR activation (heatmap value): 0.03995
GPR171
  GPCR activation (heatmap value): 0.9197
HTR2B
  GPCR activation (heatmap value): -0.6262
[1]; HRH4, 100 µM
  GPCR activation (heatmap value): 2.217
[1]; Log(10)Conc (M) -5
  HRH4 dose-response raw reporter signal (Fig. 5b source data): 8773 and 9531
[1]; Log(10)Conc (M) -6
  HRH4 dose-response raw reporter signal (Fig. 5b source data): 1621 and 2108
[1]; Log(10)Conc (M) -7
  HRH4 dose-response raw reporter signal (Fig. 5b source data): 649 and 769
[1]; Log(10)Conc (M) -8
  HRH4 dose-response raw reporter signal (Fig. 5b source data): 454 and 619
[1]; Log(10)Conc (M) -9
  HRH4 dose-response raw reporter signal (Fig. 5b source data): 531 and 542
[1]; Log(10)Conc (M) -10
  HRH4 dose-response raw reporter signal (Fig. 5b source data): 578 and 380
[1]; Log(10)Conc (M) -11
  HRH4 dose-response raw reporter signal (Fig. 5b source data): 348 and 430
[1]; Log(10)Conc (M) -12
  HRH4 dose-response raw reporter signal (Fig. 5b source data): 348 and 454
[1]; Log(10)Conc (M) -13
  HRH4 dose-response raw reporter signal (Fig. 5b source data): 286 and 351
[1]; Log(10)Conc (M) -14
  HRH4 dose-response raw reporter signal (Fig. 5b source data): 262 and 481
[1]; Log(10)Conc (M) -15
  HRH4 dose-response raw reporter signal (Fig. 5b source data): 292 and 283
[1]; PRESTO-Tango dose-response, n = 3, read-out: EC50 (HRH4 activation)
  EC50: 12.5 µM
HRH1; HRH1, 100 µM
  GPCR activation (heatmap value): 0.7784
HRH1; Log(10)Conc (M) -4
  HRH1 dose-response raw reporter signal (Fig. 5b source data): 68060 and 70767
HRH1; Log(10)Conc (M) -5
  HRH1 dose-response raw reporter signal (Fig. 5b source data): 51882 and 55219
HRH1; Log(10)Conc (M) -6
  HRH1 dose-response raw reporter signal (Fig. 5b source data): 48232 and 47554
HRH1; Log(10)Conc (M) -7
  HRH1 dose-response raw reporter signal (Fig. 5b source data): 45272 and 47466
HRH1; Log(10)Conc (M) -8
  HRH1 dose-response raw reporter signal (Fig. 5b source data): 44320 and 47843
HRH1; Log(10)Conc (M) -9
  HRH1 dose-response raw reporter signal (Fig. 5b source data): 43919 and 48335
HRH1; Log(10)Conc (M) -10
  HRH1 dose-response raw reporter signal (Fig. 5b source data): 42578 and 45208
HRH1; Log(10)Conc (M) -11
  HRH1 dose-response raw reporter signal (Fig. 5b source data): 43999 and 46555
HRH1; Log(10)Conc (M) -12
  HRH1 dose-response raw reporter signal (Fig. 5b source data): 42215 and 46142
HRH1; Log(10)Conc (M) -13
  HRH1 dose-response raw reporter signal (Fig. 5b source data): 45172 and 46997
HRH1; Log(10)Conc (M) -14
  HRH1 dose-response raw reporter signal (Fig. 5b source data): 41526 and 48557
HRH1; Log(10)Conc (M) -15
  HRH1 dose-response raw reporter signal (Fig. 5b source data): 37080 and 42401
[2]
  selectivity across the GPCR panel: selective agonists for histamine receptor H4
